Among the data in US11596611B2, “Hepatitis B antiviral agents” (ENANTA PHARMACEUTICALS, INC., priority 2017, dated 2023) are EC50 and CC50 values, retold here.

The subject of data set [1] is HBV. The data set is described as follows: HepAD38 antiviral assay: reduction of viral product accumulation (virion DNA by qPCR, HBsAg or HBeAg by ELISA). It is filed as cell-based, hepatitis B virus. The following applies: Hepatitis B virus, 120 h; HepAD38 cells, five days after compound addition; 50% reduction of viral product vs no drug controls; read-out: HepAD38 EC50. In a few lines: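 Tetracycline-free HepAD38 cells exposed to compound (DMSO stock diluted 1:200) for 5 days, or 8 days with media and compound refreshed on d2 and d5. Virion DNA quantified by qPCR after lysis; HBsAg or HBeAg measured by ELISA on diluted samples.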

Data set [2] can be described thus: Compound toxicity by ATPLite (total ATP levels). In kind it is cell-based. The conditions noted are these: human, three days after compound addition, 50% reduction of total ATP. On the procedure:
Methods: HepAD38 cells are maintained as previously reported (Ladner et al, Antimicrob. Agents Chemother. 1997, […], 1715). Briefly, cells are passaged upon attaining confluency in DMEM/F12 media in the presence of 10% FBS, Penn/Strep, 250 μg/mL G418, and 1 ug/ml tetracycline. Novel compounds are screened by first washing cells three times with PBS to remove tetracycline, and plating in 96 well plates at 35,000 cells/well. Compounds dissolved in DMSO are then diluted 1:200 into wells containing cells. Five days after compound addition, material is harvested for analysis. For an extended 8 days analysis, cells are plated and treated as described above, but media and compound are refreshed on d2 and d5 post initial treatment.
Compound toxicity is evaluated by seeding cells at 15,000 cells/well and treating with compound as described above.

`COC(=O)[C@H]1O[C@@H](OC[C@@]2(O)C3CC[C@H]2C[C@H](S(=O)(=O)c2cc(C(=O)Nc4ccc(F)c(F)c4)ccc2Cl)C3)[C@H](OC(C)=O)[C@@H](OC(C)=O)[C@@H]1OC(C)=O` [Example 329]: in data set [1], the EC50 is less than 104 nM. The compound also came in with a CC50 at 3 days in data set [2] (class symbols) greater than 25 µM.

In the case of `CO[C@H](C)CNC(=O)C[C@]1(O)C2CCC1C[C@@H](S(=O)(=O)c1cc(C(=O)Nc3ccc(F)c(F)c3)ccc1Cl)C2` [Example 189], the EC50 in data set [1] is less than 104 nM. This compound yielded a CC50 at 3 days in data set [2] (numeric bounds) greater than 12.5 µM.

Turning to `O=C(C[C@]1(O)C2CCC1C[C@@H](S(=O)(=O)c1cc(C(=O)Nc3cc(F)c(F)c(F)c3)ccc1Cl)C2)N[C@H]1C[C@H](O)C1` [Example 111], the EC50 in data set [1] is less than 104 nM. Further, in data set [2] (numeric bounds), the CC50 at 3 days was greater than 3 µM.

Consider `COC(C)(C)CNC(=O)C[C@]1(O)C2CCC1C[C@@H](S(=O)(=O)c1cc(C(=O)Nc3ccc(F)c(F)c3)ccc1Cl)C2` [Example 191], for which, in data set [1], the EC50 is less than 104 nM. Also, the CC50 at 3 days in data set [2] (class symbols) is greater than 25 µM.

For the compound `O=C(Nc1cc(F)c(F)c(F)c1)c1ccc(Cl)c(S(=O)(=O)[C@H]2C3CC[C@H]2C[C@](O)(CCCO)C3)c1` [Example 9], the EC50 in data set [1] was less than 104 nM. Further, in data set [2] (numeric bounds), the CC50 at 3 days was greater than 6.25 µM.

With `O=C(Nc1cc(F)c(F)c(F)c1)c1ccc(Cl)c(S(=O)(=O)[C@H]2CC3CCC(C2)[C@]3(O)COC(CCO)CCO)c1` [Example 61], in data set [1], the EC50 was less than 104 nM. In data set [2] (numeric bounds), this compound registered a CC50 at 3 days greater than 6.25 µM.

Turning to `C[C@@H](O)COC[C@]1(O)C2CCC1C[C@@H](S(=O)(=O)c1cc(C(=O)Nc3cc(F)c(F)c(F)c3)ccc1Cl)C2` (single isomer, unassigned) [Example 130], in data set [1], the EC50 is less than 104 nM. Moreover, the CC50 at 3 days in data set [2] (numeric bounds) was greater than 12.5 µM.

With `O=C(Nc1cc(F)c(F)c(F)c1)c1ccc(Cl)c(S(=O)(=O)[C@H]2CC3CCC(C2)[C@]3(O)CC(=O)N2CC(O)C2)c1` [Example 92], in data set [1], the half-maximal effective concentration (EC50) was less than 104 nM. Also, the CC50 at 3 days in data set [2] (numeric bounds) was greater than 6.25 µM.

As to `C[C@@H](O)CNC(=O)C[C@]1(O)C2CCC1C[C@@H](S(=O)(=O)c1cc(C(=O)Nc3ccc(F)c(C(F)F)c3)ccc1Cl)C2` [Example 155], in data set [1], the EC50 was less than 104 nM. In data set [2] (class symbols), the CC50 at 3 days was greater than 25 µM.

For the compound `C[C@H](O)[C@@H](O)[C@@]1(O)C2CC[C@H]1C[C@H](S(=O)(=O)c1cc(C(=O)Nc3cc(F)c(F)c(F)c3)ccc1Cl)C2` (single isomer, unassigned) [Example 137], the EC50 in data set [1] is less than 104 nM. In data set [2] (numeric bounds), this compound came in with a CC50 at 3 days greater than 6.25 µM.

For the compound `O=C(Nc1ccc(F)c(F)c1)c1ccc(Cl)c(S(=O)(=O)[C@H]2CC3CCC(C2)[C@]3(O)C(O)c2ccc(F)cn2)c1` (some centres unmarked) [Example 291], in data set [1], the EC50 is less than 104 nM. This compound also yielded a CC50 at 3 days in data set [2] (class symbols) greater than 25 µM.

For the compound `O=C(C[C@]1(O)C2CCC1C[C@@H](S(=O)(=O)c1cc(C(=O)Nc3ccc(F)c(F)c3)ccc1Cl)C2)NC1CC(O)C1` (some centres unmarked) [Example 192], in data set [1], the EC50 was less than 104 nM. The same compound gave a half-maximal cytotoxic concentration (CC50) at 3 days in data set [2] (numeric bounds) greater than 12.5 µM.

For the compound `C[C@H](O)[C@@H](O)COC[C@]1(O)C2CCC1C[C@@H](S(=O)(=O)c1cc(C(=O)Nc3ccc(F)c(F)c3)ccc1Cl)C2` [Example 179], the EC50 in data set [1] is less than 104 nM. In addition, the CC50 at 3 days in data set [2] (class symbols) was greater than 25 µM.

With `C[C@@H](O)[C@@H](O)[C@]1(O)C2CCC1C[C@@H](S(=O)(=O)c1cc(C(=O)Nc3ccc(F)c(F)c3)ccc1Cl)C2` (single isomer, unassigned) [Example 180], in data set [1], the half-maximal effective concentration (EC50) was less than 104 nM. This compound displayed a CC50 at 3 days in data set [2] (class symbols) greater than 25 µM.

Consider `C=CCS(=O)(=O)NC[C@]1(O)C2CCC1C[C@@H](S(=O)(=O)c1cc(C(=O)Nc3cc(F)c(F)c(F)c3)ccc1Cl)C2` [Example 39], for which the EC50 in data set [1] was less than 104 nM. In addition, in data set [2] (numeric bounds), the 50% cytotoxic concentration (CC50) at 3 days is greater than 6.25 µM.

With `CC(=O)C[C@@]1(O)C2CC[C@H]1C[C@H](S(=O)(=O)c1cc(C(=O)Nc3ccc(F)c(F)c3)ccc1Cl)C2` [Example 215], in data set [1], the EC50 is less than 104 nM. Also, the CC50 at 3 days in data set [2] (class symbols) was greater than 25 µM.

As for `O=C(Nc1cc(F)c(F)c(F)c1)c1ccc(Cl)c(S(=O)(=O)[C@H]2CC3CCC(C2)[C@]3(O)CNC(=O)c2ncco2)c1` [Example 88], the EC50 in data set [1] is less than 104 nM. Besides, in data set [2] (numeric bounds), the CC50 at 3 days was greater than 6.25 µM.

On to `Cc1ccnc(C(O)[C@@]2(O)C3CC[C@H]2C[C@H](S(=O)(=O)c2cc(C(=O)Nc4ccc(F)c(F)c4)ccc2Cl)C3)c1` (some centres unmarked) [Example 296], for which, in data set [1], the EC50 is less than 104 nM. Further, the CC50 at 3 days in data set [2] (class symbols) is greater than 25 µM.

Regarding `O=C(Nc1cc(F)c(F)c(F)c1)c1ccc(Cl)c(S(=O)(=O)[C@H]2CC3CCC(C2)[C@]3(O)CNC(=O)C2CCCOC2)c1` (some centres unmarked) [Example 90], the EC50 in data set [1] is less than 104 nM. Moreover, in data set [2] (numeric bounds), the CC50 at 3 days is greater than 6.25 µM.

`CC=CCNC(=O)C[C@]1(O)C2CCC1C[C@@H](S(=O)(=O)c1cc(C(=O)Nc3cc(F)c(F)c(F)c3)ccc1Cl)C2` [Example 53]: in data set [1], the EC50 is less than 104 nM. In data set [2] (numeric bounds), this compound yielded a CC50 at 3 days greater than 6.25 µM.

Consider `C[C@@H](O)[C@H](O)COC[C@]1(O)C2CCC1C[C@@H](S(=O)(=O)c1cc(C(=O)Nc3ccc(F)c(F)c3)ccc1Cl)C2` [Example 178], for which the half-maximal effective concentration (EC50) in data set [1] is less than 104 nM. In addition, the CC50 at 3 days in data set [2] (class symbols) is greater than 25 µM.

With `C[C@@H](O)COC[C@]1(O)C2CCC1C[C@@H](S(=O)(=O)c1cc(C(=O)Nc3ccc(F)c(F)c3)ccc1Cl)C2` [Example 177], in data set [1], the half-maximal effective concentration (EC50) is less than 104 nM. This compound had a CC50 at 3 days in data set [2] (numeric bounds) greater than 6.25 µM.

On to `CC(C)=CCNC(=O)C[C@]1(O)C2CCC1C[C@@H](S(=O)(=O)c1cc(C(=O)Nc3cc(F)c(F)c(F)c3)ccc1Cl)C2` [Example 52], for which the EC50 in data set [1] was less than 104 nM. For the same compound, in data set [2] (class symbols), the CC50 at 3 days was greater than 25 µM.

`CC(C)(O)C[C@@]1(O)C2CC[C@H]1C[C@H](S(=O)(=O)c1cc(C(=O)Nc3ccc(F)c(F)c3)ccc1Cl)C2` [Example 193]: the EC50 in data set [1] is less than 104 nM. The compound also registered a CC50 at 3 days in data set [2] (class symbols) greater than 25 µM.

`O=C(Nc1ccc(F)c(F)c1)c1ccc(F)c(S(=O)(=O)[C@@H]2CC3CC[C@@H](C2)[C@@]3(O)CO)c1` [Example 325]: the EC50 in data set [1] was less than 104 nM. The half-maximal cytotoxic concentration (CC50) at 3 days in data set [2] (class symbols) is greater than 25 µM.

In the case of `C[C@@H](O)[C@H](O)COC[C@]1(O)C2CCC1C[C@@H](S(=O)(=O)c1cc(C(=O)Nc3cc(F)c(F)c(F)c3)ccc1Cl)C2` (single isomer, unassigned) [Example 163], the EC50 in data set [1] is less than 104 nM. This compound came in with a CC50 at 3 days in data set [2] (class symbols) greater than 25 µM.

`CC(=O)[C@@H](O)[C@@]1(O)C2CC[C@H]1C[C@H](S(=O)(=O)c1cc(C(=O)Nc3ccc(F)c(F)c3)ccc1Cl)C2` [Example 331]: in data set [1], the concentration for a half-maximal effect (EC50) is less than 104 nM. The compound also showed a CC50 at 3 days in data set [2] (class symbols) greater than 25 µM.

On to `C[C@H](O)CNC(=O)C[C@]1(O)C2CCC1C[C@@H](S(=O)(=O)c1cc(C(=O)Nc3ccc(F)c(C(F)F)c3)ccc1Cl)C2` [Example 129], for which the EC50 in data set [1] was less than 104 nM. In addition, the CC50 at 3 days in data set [2] (class symbols) is greater than 25 µM.

`O=C(NC[C@@]1(O)C2CC[C@H]1C[C@H](S(=O)(=O)c1cc(C(=O)Nc3cc(F)c(F)c(F)c3)ccc1Cl)C2)C1=CCCC1` [Example 41]: the EC50 in data set [1] is less than 104 nM. The compound also yielded a half-maximal cytotoxic concentration (CC50) at 3 days in data set [2] (numeric bounds) greater than 6.25 µM.

For `O=C(Nc1ccc(F)c(C(F)F)c1)c1ccc(Cl)c(S(=O)(=O)[C@H]2CC3CCC(C2)[C@]3(O)CO)c1` [Example 151], in data set [1], the EC50 is less than 104 nM. The compound further showed a CC50 at 3 days in data set [2] (class symbols) greater than 25 µM.

As for `[2H]C1([2H])C2CCC(C([2H])([2H])[C@]1([2H])S(=O)(=O)c1cc(C(=O)Nc3ccc(F)c(F)c3)ccc1Cl)[C@@]2(O)CO` [Example 279], the EC50 in data set [1] is less than 104 nM. This compound also yielded a CC50 at 3 days in data set [2] (class symbols) greater than 25 µM.
